The record followed here is US20160271263A1 (Novo Nordisk A/S, priority 2010, published 2016).

Each structure is given as a SMILES string. Numbered stars: 1 amine (or outer) side, 2 acyl side, 3 side chain; on linkers, the order of the positions; unused ones are H or OH. Side chains are listed from the residue outwards. Peptide text beside a SMILES is read from it. * marks the point of attachment. C18 diacid = O=C(O)CCCCCCCCCCCCCCCCC(=O)*; γGlu = O=C(O)[C@H](CCC(=O)[*:2])N[*:1]; AEEA = NCCOCCOCC(=O)O

The target in this assay is glucagon receptor (Homo sapiens, UniProt P47871). Kind of assay: cell-based.
Chain of glucagon receptor (P47871 26-477): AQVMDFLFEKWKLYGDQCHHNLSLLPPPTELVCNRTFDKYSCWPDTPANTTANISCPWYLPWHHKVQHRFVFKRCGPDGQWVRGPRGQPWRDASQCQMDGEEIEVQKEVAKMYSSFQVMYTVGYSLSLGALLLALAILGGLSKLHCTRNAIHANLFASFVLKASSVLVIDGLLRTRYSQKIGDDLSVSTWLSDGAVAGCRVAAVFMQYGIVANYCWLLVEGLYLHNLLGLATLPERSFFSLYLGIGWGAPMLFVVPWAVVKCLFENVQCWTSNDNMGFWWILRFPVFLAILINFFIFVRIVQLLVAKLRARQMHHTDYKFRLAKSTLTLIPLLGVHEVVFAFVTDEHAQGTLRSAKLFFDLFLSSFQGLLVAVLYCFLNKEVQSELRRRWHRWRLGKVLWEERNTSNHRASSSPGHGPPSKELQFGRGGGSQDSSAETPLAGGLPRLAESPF
The compound `CC(C)C[C@H](NC(=O)[C@H](Cc1ccc(O)cc1)NC(=O)[C@H](CCCCN)NC(=O)[C@H](CO)NC(=O)[C@H](Cc1ccc(O)cc1)NC(=O)[C@H](CC(=O)O)NC(=O)[C@H](CO)NC(=O)[C@@H](NC(=O)[C@H](Cc1ccccc1)NC(=O)[C@@H](NC(=O)CNC(=O)[C@H](CCC(N)=O)NC(=O)[C@H](CO)NC(=O)[C@@H](N)Cc1c[nH]cn1)[C@@H](C)O)[C@@H](C)O)C(=O)N[C@@H](CC(=O)O)C(=O)N[C@@H](CO)C(=O)N[C@@H](CCCNC(=N)N)C(=O)N[C@@H](CCC(N)=O)C(=O)N[C@@H](C)C(=O)N[C@@H](CCC(N)=O)C(=O)N[C@@H](CCC(=O)O)C(=O)N[C@@H](Cc1ccccc1)C(=O)N[C@H](C(=O)N[C@@H](CCCCNC(=O)COCCOCCNC(=O)COCCOCCNC(=O)CC[C@H](NC(=O)CCCCCCCCCCCCCCCCC(=O)O)C(=O)O)C(=O)N[C@@H](Cc1c[nH]c2ccccc12)C(=O)N[C@@H](CC(C)C)C(=O)N[C@@H](CC(C)C)C(=O)N[C@@H](CC(N)=O)C(=O)N[C@H](C(=O)O)[C@@H](C)O)C(C)C` [Example 49, N^ε24-([2-[2-[2-[[2-[2-[2-[[(4S)-5-hydroxy-4-[(18-hydroxy-18-oxooctadecanoyl)amino]-5-oxopentanoyl]amino]ethoxy]ethoxy]acetyl]amino]ethoxy]ethoxy]acetyl]) [Gln^18,Glu^21,Lys^24,Leu^27] Glucagon] (H-HSQGTFTSDYSKYLDSRQAQEFVK([AEEA-AEEA-γGlu-C18 diacid])WLLNT-OH; N-terminus and C-terminus assumed) showed a concentration giving a half-maximal response (EC50) of 0.15 nM.
`CC(C)C[C@H](NC(=O)[C@H](Cc1ccc(O)cc1)NC(=O)[C@H](CCCCN)NC(=O)[C@H](CO)NC(=O)[C@H](Cc1ccc(O)cc1)NC(=O)[C@H](CC(=O)O)NC(=O)[C@H](CO)NC(=O)[C@@H](NC(=O)[C@H](Cc1ccccc1)NC(=O)[C@@H](NC(=O)CNC(=O)[C@H](CCC(N)=O)NC(=O)[C@H](CO)NC(=O)[C@@H](N)Cc1c[nH]cn1)[C@@H](C)O)[C@@H](C)O)C(=O)N[C@@H](CC(=O)O)C(=O)N[C@@H](CO)C(=O)N[C@@H](CCCNC(=N)N)C(=O)N[C@@H](CCCNC(=N)N)C(=O)N[C@@H](C)C(=O)N[C@@H](CCC(N)=O)C(=O)N[C@@H](CCC(=O)O)C(=O)N[C@@H](Cc1ccccc1)C(=O)N[C@H](C(=O)N[C@@H](CCCCNC(=O)COCCOCCNC(=O)COCCOCCNC(=O)CC[C@H](NC(=O)CCCCCCCCCCCCCCCCC(=O)O)C(=O)O)C(=O)N[C@@H](Cc1c[nH]c2ccccc12)C(=O)N[C@@H](CC(C)C)C(=O)N[C@@H](CC(C)C)C(=O)N[C@@H](CC(N)=O)C(=O)N[C@H](C(=O)O)[C@@H](C)O)C(C)C` [Example 48]: it took 0.021 nM to reach a half-maximal effect (EC50).
For `CC(C)C[C@H](NC(=O)[C@H](Cc1ccc(O)cc1)NC(=O)[C@H](CCCNC(=N)N)NC(=O)[C@H](CO)NC(=O)[C@H](Cc1ccc(O)cc1)NC(=O)[C@H](CC(=O)O)NC(=O)[C@H](CO)NC(=O)[C@@H](NC(=O)[C@H](Cc1ccccc1)NC(=O)[C@@H](NC(=O)CNC(=O)[C@H](CCC(N)=O)NC(=O)[C@H](CO)NC(=O)[C@@H](N)Cc1c[nH]cn1)[C@@H](C)O)[C@@H](C)O)C(=O)N[C@@H](CC(=O)O)C(=O)N[C@@H](CO)C(=O)N[C@@H](CCCNC(=N)N)C(=O)N[C@@H](CCCNC(=N)N)C(=O)N[C@@H](C)C(=O)N[C@@H](CCC(N)=O)C(=O)N[C@@H](CC(=O)O)C(=O)N[C@@H](Cc1ccccc1)C(=O)N[C@H](C(=O)N[C@@H](CCC(N)=O)C(=O)N[C@@H](Cc1c[nH]c2ccccc12)C(=O)N[C@@H](CC(C)C)C(=O)N[C@@H](CCCCNC(=O)CC[C@H](NC(=O)CC[C@H](NC(=O)COCCOCCNC(=O)COCCOCCNC(=O)CC[C@H](NC(=O)CCCCCCCCCCCCCCCCC(=O)O)C(=O)O)C(=O)O)C(=O)O)C(=O)N[C@@H](CC(N)=O)C(=O)N1CCC[C@H]1C(=O)O)C(C)C` [Example 87, N^ε27-[(4S)-4-carboxy-4-[[(4S)-4-carboxy-4-[[2-[2-[2-[[2-[2-[2-[[(4S)-4-carboxy-4-(17-carboxyheptadecanoylamino)butanoyl]amino]ethoxy]ethoxy]acetyl]amino]ethoxy]ethoxy]acetyl]amino]butanoyl]amino]butanoyl]-[Arg^12,Lys^27,Pro^29]-Glucagon], a half-maximal effect (EC50) was put at 2.11 nM. This EC50 lies about 100-fold higher than the previous one.
The value for `CC(C)C[C@H](NC(=O)[C@H](Cc1ccc(O)cc1)NC(=O)[C@H](CCCCN)NC(=O)[C@H](CO)NC(=O)[C@H](Cc1ccc(O)cc1)NC(=O)[C@H](CC(=O)O)NC(=O)[C@H](CO)NC(=O)[C@@H](NC(=O)[C@H](Cc1ccccc1)NC(=O)[C@@H](NC(=O)CNC(=O)[C@H](CCC(N)=O)NC(=O)[C@H](CO)NC(=O)[C@@H](N)Cc1c[nH]cn1)[C@@H](C)O)[C@@H](C)O)C(=O)N[C@@H](CC(=O)O)C(=O)N[C@@H](CCCCNC(=O)COCCOCCNC(=O)COCCOCCNC(=O)CC[C@H](NC(=O)CCCCCCCCCCCCCCCCC(=O)O)C(=O)O)C(=O)N[C@@H](CCCNC(=N)N)C(=O)N[C@@H](CCCNC(=N)N)C(=O)N[C@@H](C)C(=O)N[C@@H](CCC(N)=O)C(=O)N[C@@H](CC(=O)O)C(=O)N[C@@H](Cc1ccccc1)C(=O)N[C@H](C(=O)N[C@@H](CCC(N)=O)C(=O)N[C@@H](Cc1c[nH]c2ccccc12)C(=O)N[C@@H](CC(C)C)C(=O)N[C@@H](CC(C)C)C(=O)N[C@@H](CC(N)=O)C(=O)N[C@H](C(=O)O)[C@@H](C)O)C(C)C` [Example 17] (H-HSQGTFTSDYSKYLDK([AEEA-AEEA-γGlu-C18 diacid])RRAQDFVQWLLNT-OH; N-terminus and C-terminus assumed) was 0.003 nM.
Compound `CC(C)C[C@H](NC(=O)[C@H](Cc1ccc(O)cc1)NC(=O)[C@H](CCCCN)NC(=O)[C@H](CO)NC(=O)[C@H](Cc1ccc(O)cc1)NC(=O)[C@H](CC(=O)O)NC(=O)[C@H](CO)NC(=O)[C@@H](NC(=O)[C@H](Cc1ccccc1)NC(=O)[C@@H](NC(=O)CNC(=O)[C@H](CCC(N)=O)NC(=O)[C@H](CO)NC(=O)[C@@H](N)Cc1c[nH]cn1)[C@@H](C)O)[C@@H](C)O)C(=O)N[C@@H](CC(=O)O)C(=O)N[C@@H](CO)C(=O)N[C@@H](CCC(N)=O)C(=O)N[C@@H](CCCNC(=N)N)C(=O)N[C@@H](C)C(=O)N[C@@H](CCC(N)=O)C(=O)N[C@@H](CC(=O)O)C(=O)N[C@@H](Cc1ccccc1)C(=O)N[C@H](C(=O)N[C@@H](CCCCNC(=O)COCCOCCNC(=O)COCCOCCNC(=O)CC[C@H](NC(=O)CCCCCCCCCCCCCCCCC(=O)O)C(=O)O)C(=O)N[C@@H](Cc1c[nH]c2ccccc12)C(=O)N[C@@H](CC(C)C)C(=O)N[C@H](C(=O)N[C@@H](CCCCN)C(=O)N[C@H](C(=O)NCC(=O)N1CCC[C@H]1C(N)=O)[C@@H](C)O)C(C)C)C(C)C` [Example 33, (N^ε24-([2-[2-[2-[[2-[2-[2-[[(4S)-5-hydroxy-4-[(18-hydroxy-18-oxooctadecanoyl)amino]-5-oxopentanoyl]amino]ethoxy]ethoxy]acetyl]amino]ethoxy]ethoxy]acetyl])[Gln^17, Lys^24, Val^27, Lys^28] Glucagonyl)-Gly-Pro amide] (H-HSQGTFTSDYSKYLDSQRAQDFVK([AEEA-AEEA-γGlu-C18 diacid])WLVKTGP-NH2; N-terminus assumed) registered an EC50 of 0.942 nM. Compared with the last compound, the EC50 is about 310-fold higher.
The value for `CC(C)C[C@H](NC(=O)[C@H](Cc1ccc(O)cc1)NC(=O)[C@H](CCCCN)NC(=O)[C@H](CO)NC(=O)[C@H](Cc1ccc(O)cc1)NC(=O)[C@H](CC(=O)O)NC(=O)[C@H](CO)NC(=O)[C@@H](NC(=O)[C@H](Cc1ccccc1)NC(=O)[C@@H](NC(=O)CNC(=O)[C@H](CCC(N)=O)NC(=O)[C@H](CO)NC(=O)[C@@H](N)Cc1c[nH]cn1)[C@@H](C)O)[C@@H](C)O)C(=O)N[C@@H](CC(=O)O)C(=O)N[C@@H](CO)C(=O)N[C@@H](CCCNC(=N)N)C(=O)N[C@@H](CCCNC(=N)N)C(=O)N[C@@H](C)C(=O)N[C@@H](CCC(N)=O)C(=O)N[C@@H](CC(=O)O)C(=O)N[C@@H](Cc1ccccc1)C(=O)N[C@H](C(=O)N[C@@H](CCC(N)=O)C(=O)N[C@@H](Cc1c[nH]c2ccccc12)C(=O)N[C@@H](CC(C)C)C(=O)N[C@@H](CC(C)C)C(=O)N[C@@H](CCCCNC(=O)CC[C@H](NC(=O)CC[C@H](NC(=O)COCCOCCNC(=O)COCCOCCNC(=O)CC[C@H](NC(=O)CCCCCCCCCCCCCCCCC(=O)O)C(=O)O)C(=O)O)C(=O)O)C(=O)N[C@H](C(=O)N1CCC[C@H]1C(=O)O)[C@@H](C)O)C(C)C` [Example 82, N^ε28-[(4S)-4-carboxy-4-[[(4S)-4-carboxy-4-[[2-[2-[2-[[2-[2-[2-[[(4S)-4-carboxy-4-(17-carboxyheptadecanoylamino)butanoyl]amino]ethoxy]ethoxy]acetyl]amino]ethoxy]ethoxy]acetyl]amino]butanoyl]amino]butanoyl]-[Leu^27,Lys^28]-Glucagonyl-Pro] was 0.128 nM; that for `CC(C)C[C@H](NC(=O)[C@H](Cc1ccc(O)cc1)NC(=O)[C@H](CCCCN)NC(=O)[C@H](CO)NC(=O)[C@H](Cc1ccc(O)cc1)NC(=O)[C@H](CC(=O)O)NC(=O)[C@H](CO)NC(=O)[C@@H](NC(=O)[C@H](Cc1ccccc1)NC(=O)[C@@H](NC(=O)CNC(=O)[C@H](CCC(N)=O)NC(=O)[C@H](CO)NC(=O)[C@@H](N)Cc1c[nH]cn1)[C@@H](C)O)[C@@H](C)O)C(=O)N[C@@H](CC(=O)O)C(=O)N[C@@H](CO)C(=O)N[C@@H](CCCNC(=N)N)C(=O)N[C@@H](CCCNC(=N)N)C(=O)N[C@@H](C)C(=O)N[C@@H](CCC(N)=O)C(=O)N[C@@H](CC(=O)O)C(=O)N[C@@H](Cc1ccccc1)C(=O)N[C@H](C(=O)N[C@@H](CCCCNC(=O)COCCOCCNC(=O)COCCOCCNC(=O)CC[C@H](NC(=O)CCCCCCCCCCCCCCCCC(=O)O)C(=O)O)C(=O)N[C@@H](Cc1c[nH]c2ccccc12)C(=O)N[C@@H](CC(C)C)C(=O)N[C@@H](CC(C)C)C(=O)N[C@@H](CO)C(=O)N[C@H](C(=O)O)[C@@H](C)O)C(C)C` [Example 14] was 0.02 nM.
